For seven compounds, IC50 results are on record in BindingDB's records for doi:10.1016/j.bmcl.2005.08.107 (Bristol-Myers Squibb Pharmaceutical Research Institute, 2005).

Chain of Coagulation factor X (P00742 41-179 limits assumed): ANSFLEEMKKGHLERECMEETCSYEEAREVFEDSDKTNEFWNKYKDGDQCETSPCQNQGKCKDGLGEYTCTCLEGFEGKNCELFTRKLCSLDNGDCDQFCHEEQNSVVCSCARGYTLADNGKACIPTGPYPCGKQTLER
Chain of Coagulation factor X (P00742 235-488 limits assumed): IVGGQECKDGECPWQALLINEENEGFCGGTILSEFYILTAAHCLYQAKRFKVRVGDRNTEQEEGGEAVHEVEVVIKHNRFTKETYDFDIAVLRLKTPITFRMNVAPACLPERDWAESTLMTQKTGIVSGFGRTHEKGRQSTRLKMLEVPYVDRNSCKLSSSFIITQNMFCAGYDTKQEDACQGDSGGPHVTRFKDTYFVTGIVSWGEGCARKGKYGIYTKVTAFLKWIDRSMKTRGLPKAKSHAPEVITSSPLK

This test concerns the target Coagulation factor X (Homo sapiens, UniProt P00742). The test is described as follows: Inhibitory activity against human FXa.
Take `Cc1cc2cc(N=C(N[C@H]3CCCCN(CC(=O)N4CCCC4)C3=O)C(C#N)C(=O)c3ccc(Cl)cc3)ccc2o1` (stereo partly drawn) [(S,Z)-2-(4-chlorobenzoyl)-3-(2-methylbenzofuran-5-ylamino)-3-(2-oxo-1-(2-oxo-2-(pyrrolidin-1-yl)ethyl)azepan-3-ylamino)acrylonitrile]: the IC50 – broadly, the concentration that gives 50% inhibition – turned out to be 13 nM.
On to `Cc1cc2cc(N=C(N[C@H]3CCCCN(CC(=O)N4CCCC4)C3=O)C(C#N)C(=O)N3CCC(C)CC3)ccc2o1` (stereo partly drawn) [(S,Z)-3-(2-methylbenzofuran-5-ylamino)-2-(4-methylpiperidine-1-carbonyl)-3-(2-oxo-1-(2-oxo-2-(pyrrolidin-1-yl)ethyl)azepan-3-ylamino)acrylonitrile], for which the IC50 stood at 57 nM.
For `CN(C)c1ccc(NC(C[N+](=O)[O-])=N[C@H]2CCCCN(CC(=O)N3CCCC3)C2=O)cc1` [(S,Z)-3-(1-(4-(dimethylamino)phenylamino)-2-nitrovinylamino)-1-(2-oxo-2-(pyrrolidin-1-yl)ethyl)azepan-2-one] the value was over 34000 nM; for `COc1ccc(C(=O)C(C#N)C(=Nc2ccc3oc(C)cc3c2)N[C@H]2CCCCN(CC(=O)N3CCCC3)C2=O)cc1` (stereo partly drawn) [(S,Z)-2-(4-methoxybenzoyl)-3-(2-methylbenzofuran-5-ylamino)-3-(2-oxo-1-(2-oxo-2-(pyrrolidin-1-yl)ethyl)azepan-3-ylamino)acrylonitrile], 13 nM; for `Cc1cc2cc(N=C(N[C@H]3CCCCN(CC(=O)N4CCCC4)C3=O)C(C#N)C(=O)OC(C)(C)C)ccc2o1` (stereo partly drawn) [(S,Z)-tert-butyl 2-cyano-3-(2-methylbenzofuran-5-ylamino)-3-(2-oxo-1-(2-oxo-2-(pyrrolidin-1-yl)ethyl)azepan-3-ylamino)acrylate], 57 nM.
Then `Cc1cc2cc(N=C(N[C@H]3CCCCN(CC(=O)N4CCCC4)C3=O)C(C#N)C(=O)NC(N)=O)ccc2o1` (stereo partly drawn) [(S,Z)-1-(2-cyano-3-(2-methylbenzofuran-5-ylamino)-3-(2-oxo-1-(2-oxo-2-(pyrrolidin-1-yl)ethyl)azepan-3-ylamino)acryloyl)urea], with 13 nM; and `Cc1ccc(NC(C[N+](=O)[O-])=N[C@H]2CCCCN(CC(=O)N3CCCC3)C2=O)cc1` [(S,Z)-3-(1-(p-toluidino)-2-nitrovinylamino)-1-(2-oxo-2-(pyrrolidin-1-yl)ethyl)azepan-2-one], with over 34000 nM.
